As a reminder, the IC50 is the concentration at which inhibition is half-maximal. Low readings indicate higher potency, high ones lower potency. For orientation: Ki means the dissociation constant of the complex between target and ligand, obtained from inhibition or displacement.

This is an account of results in ChEMBL document CHEMBL2074017, “Distinct characteristics of organic cation transporters, OCT1 and OCT2, in the basolateral membrane of renal tubules” (Pharm Res, 2001).

In test [1] the target is T1, Solute carrier family 22 member 2 (Rattus norvegicus, UniProt Q9R0W2).
T1 sequence (Q9R0W2 whole entry): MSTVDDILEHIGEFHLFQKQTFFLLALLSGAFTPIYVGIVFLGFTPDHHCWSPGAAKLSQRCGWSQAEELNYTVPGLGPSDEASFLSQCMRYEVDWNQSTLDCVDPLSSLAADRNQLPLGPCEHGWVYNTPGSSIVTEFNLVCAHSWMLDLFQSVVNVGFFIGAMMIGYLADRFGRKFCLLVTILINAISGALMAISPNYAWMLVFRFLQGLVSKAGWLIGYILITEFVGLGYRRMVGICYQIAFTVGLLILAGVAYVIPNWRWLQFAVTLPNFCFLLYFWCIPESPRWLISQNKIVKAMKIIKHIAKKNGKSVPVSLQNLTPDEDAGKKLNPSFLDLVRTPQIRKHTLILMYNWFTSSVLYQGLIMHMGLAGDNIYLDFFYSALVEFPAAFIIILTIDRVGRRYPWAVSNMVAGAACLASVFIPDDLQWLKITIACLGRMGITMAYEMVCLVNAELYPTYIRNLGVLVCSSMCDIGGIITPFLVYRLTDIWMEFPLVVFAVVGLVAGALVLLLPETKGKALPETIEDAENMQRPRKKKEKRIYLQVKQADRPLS
It is filed as functional, cell-based, MDCK.

Test [2] has as its target T2, Solute carrier family 22 member 1 (Rattus norvegicus, UniProt Q63089).
T2 sequence (Q63089 whole entry): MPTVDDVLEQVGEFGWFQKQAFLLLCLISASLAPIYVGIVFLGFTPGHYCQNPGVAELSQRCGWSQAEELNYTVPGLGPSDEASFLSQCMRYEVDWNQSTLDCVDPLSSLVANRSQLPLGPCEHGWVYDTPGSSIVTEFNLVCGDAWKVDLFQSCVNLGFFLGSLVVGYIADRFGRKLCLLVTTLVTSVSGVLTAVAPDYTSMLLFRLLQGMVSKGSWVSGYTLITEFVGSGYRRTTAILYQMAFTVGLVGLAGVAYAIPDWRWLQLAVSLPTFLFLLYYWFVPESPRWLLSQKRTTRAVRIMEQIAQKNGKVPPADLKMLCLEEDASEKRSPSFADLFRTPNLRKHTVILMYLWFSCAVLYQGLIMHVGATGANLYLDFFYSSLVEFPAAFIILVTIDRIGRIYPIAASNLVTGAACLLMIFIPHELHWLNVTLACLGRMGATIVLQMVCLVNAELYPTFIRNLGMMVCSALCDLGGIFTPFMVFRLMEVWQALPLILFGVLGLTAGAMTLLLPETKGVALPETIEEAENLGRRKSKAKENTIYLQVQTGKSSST
In kind it is functional, cell-based, MDCK.

For test [3], the target named is T1, Solute carrier family 22 member 2. The test is described as follows: TP_TRANSPORTER: inhibition of TEA uptake in OCT2-expressing MDCK cells. It is filed as functional, cell-based.
In test [4] the target is T2, Solute carrier family 22 member 1. The test is described as follows: TP_TRANSPORTER: inhibition of TEA uptake in OCT1-expressing MDCK cells. It is filed as functional, cell-based.

On to `CCN(CC)CCNC(=O)c1ccc(NC(C)=O)cc1` [ACECAINIDE], for which the IC50 in test [1] came out at 5 µM; in test [2] it was 8.8 µM.
As for `N=C(N)NC(=O)c1nc(Cl)c(N)nc1N` [AMILORIDE], the inhibition constant (Ki) in test [3] came out at 4.7 µM; in test [4], 6.9 µM.
For the molecule `CCCC[N+](CCCC)(CCCC)CCCC` [TETRABUTHYLAMMONIUM], the IC50 was 5.7 µM in test [1] and 7.9 µM in test [2].
For `Cc1ncc(C[n+]2csc(CCO)c2C)c(N)n1` [THIAMINE ION], the Ki in test [3] stood at 646 µM; in test [4] it was 736 µM.
With `CCN(CC)CCNC(=O)c1ccc(N)cc1` [PROCAINAMIDE], affinity in test [3] was put at a Ki of 36 µM.
Take `NCCc1c[nH]cn1` [HISTAMINE]: the Ki in test [3] was determined as 171 µM; in test [4] it was 141 µM.
Consider `CC(C)N(CCC(C(N)=O)(c1ccccc1)c1ccccn1)C(C)C` (stereo not given) [DISOPYRAMIDE], for which the Ki in test [3] turned out to be 30 µM; in test [4], 62 µM.
With `C[N+](C)(C)CCO` [CHOLINE], the IC50 in test [1] and in test [2] was 1450 µM in each case.
As to `CCCCC[N+](CCCCC)(CCCCC)CCCCC` [TETRAPENTYLAMMONIUM], the IC50 in test [1] is 1.7 µM; in test [2], 1.3 µM.
Consider `NCCc1c[nH]c2ccc(O)cc12` [SEROTONIN], for which the Ki in test [3] stood at 242 µM; in test [4] it was 390 µM.
For `CNC[C@H](O)c1ccc(O)c(O)c1` [EPINEPHRINE], the Ki worked out at 1190 µM in test [3] and 1600 µM in test [4].
In the case of `C[N+](C)(C)C` [TETRAMETHYLAMMONIUM], the IC50 in test [1] worked out at 1670 µM. That is a millimolar value.
Consider `NCCc1ccc(O)c(O)c1` [DOPAMINE], for which the Ki in test [3] came out at 347 µM; in test [4], 603 µM.
`CN(C)CCCN1c2ccccc2CCc2ccccc21` [IMIPRAMINE]: the IC50 in test [1] came to 9.9 µM; in test [2] it was 16 µM.
In the same order, the values of `CCC[N+](CCC)(CCC)CCC` [TETRAPROPYLAMMONIUM] are 39 µM and 23 µM.
As to `CN(C)CCC(c1ccc(Cl)cc1)c1ccccn1` (stereo not given) [CHLORPHENIRAMINE], the IC50 came to 26 µM in test [1] and 14 µM in test [2].
